Assay results: patent US6362369B1, “Phthalic acid diamide derivatives fluorine-containing aniline compounds as starting material, agricultural and horticultural insecticides, and a method for application of the insecticides” (Nihon Nohyaku Co., Ltd., priority 1997, dated 2002)

What was measured:
Format in all cases: in vivo
[1] = tested on: common cutworm (Spodoptera Litura); assay: Insecticidal effect on common cutworm (Test Example 2); details: common cutworm second-instar larvae; cabbage leaf immersed, 500 ppm; eight days after inoculation; 25° C.
Procedure, shortened: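 Mortality is the read-out: larvae are counted as dead or alive on day 8 and the percentage is graded by an effect criterion. Second-instar larvae are kept with the air-dried treated material in a sealed dish at 25° C, in triplicate groups of ten.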

[2] = tested on: diamondback moth (Plutella xylostella); assay: Insecticidal effect on diamondback moth (Test Example 1); details: diamondback moth; mortality judged by criterion of Test Example 1
Procedure, shortened: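 Triplicate groups of 10 insects: eggs laid on Chinese cabbage seedling by adults, seedling immersed then air-dried, kept at 25° C. Day-6 hatch counts gave mortality, rated by criterion.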

[3] = tested on: rice leafroller (Cnaphalocrocis medinalis); assay: Insecticidal effect on rice leafroller (Test Example 3); details: rice leafroller third-instar larvae; rice lamina immersed, 500 ppm; four days after inoculation; 25° C., humidity 70%
Procedure, shortened: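 Insecticidal effect is judged by a predefined criterion from dead/alive counts four days after infesting air-dried lamina with third-instar larvae, kept on moistened filter paper at 25° C, 70% humidity.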

Row | SMILES | Insecticidal effect, Test Example 2 [1] | Insecticidal effect, Test Example 1 [2] | Insecticidal effect, Test Example 3 [3]
1 | CC(C)(C)NC(=O)c1ccccc1C(=O)Nc1ccc2c(c1)OC(F)(F)C(F)O2 (stereo not drawn) [compound 1165] | A (100) | A (100) | A (100)
2 | CCN(CC)C(=O)c1c(I)cccc1C(=O)Nc1ccc2c(c1)OC(F)(F)C(F)O2 (stereo not drawn) [compound 1167] | A (100) | A (100) | A (100)
3 | Cc1cc([S+]([O-])C(F)(F)F)ccc1NC(=O)c1cccc(I)c1C(=O)NC(C)C (stereo not drawn) [compound 1168] | A (100) | A (100) | A (100)
4 | Cc1cc([S+]([O-])C(F)(F)F)ccc1NC(=O)c1cccc(I)c1C(=O)NC(C)(C)C (stereo not drawn) [compound 1169] | A (100) | A (100) | A (100)
5 | CC(C)NC(=O)c1c(I)cccc1C(=O)Nc1ccc2oc(-c3ccc(C(F)(F)F)cc3)nc2c1 [compound 1173] | A (100) | A (100) | A (100)
6 | CC(C)(C)NC(=O)c1c(I)cccc1C(=O)Nc1ccc2oc(-c3ccc(C(F)(F)F)cc3)nc2c1 [compound 1174] | A (100) | A (100) | A (100)
7 | CCN(CC)C(=O)c1c(I)cccc1C(=O)Nc1ccc(OC(F)(F)F)cc1F [compound 1190] | A (100) | A (100) | A (100)
8 | Cc1cc(C(F)(F)C(F)(F)F)ccc1NC(=O)c1cccc(OC(F)(F)F)c1C(=O)NC(C)C [compound 1191] | A (100) | A (100) | A (100)
9 | Cc1cc(C(F)(F)C(F)(F)F)ccc1NC(=O)c1cccc(OC(F)(F)F)c1C(=O)NC(C)(C)C [compound 1192] | A (100) | A (100) | A (100)
10 | CCN(CC)C(=O)c1c(OC(F)(F)F)cccc1C(=O)Nc1ccc(C(F)(F)C(F)(F)F)cc1C [compound 1193] | A (100) | A (100) | A (100)
11 | Cc1cc(C(F)(F)C(F)(F)F)ccc1NC(=O)c1ccc(I)cc1C(=O)NC(C)C [compound 1202] | A (100) | A (100) | A (100)
12 | Cc1cc(C(F)(F)C(F)(F)F)ccc1NC(=O)c1cc(I)ccc1C(=O)NC(C)C [compound 1203] | D (79-50) | A (100) | A (100)
13 | Cc1cc(OC(F)F)ccc1NC(=O)c1ccc(I)cc1C(=O)NC(C)C [compound 1204] | A (100) | A (100) | A (100)
14 | Cc1cc(OC(F)(F)C(F)F)ccc1NC(=O)c1cccc(C(F)(F)F)c1C(=O)NC(C)C [compound 1206] | A (100) | A (100) | A (100)
15 | Cc1cc(C(F)(C(F)(F)F)C(F)(F)F)ccc1NC(=O)c1cccc(C(F)(F)F)c1C(=O)NC(C)C [compound 1207] | A (100) | A (100) | A (100)
16 | CCc1cc(OC(F)(F)F)ccc1NC(=O)c1cccc(Cl)c1C(=O)NC(C)C [compound 1209] | D (79-50) | A (100) | A (100)
17 | CCc1cc(OC(F)(F)F)ccc1NC(=O)c1cccc(I)c1C(=O)NC(C)C [compound 1210] | A (100) | A (100) | A (100)
